Reference: US10082510B2, “SRC-2 use as metabolic biomarker for diagnosis and treatment of metastatic prostate cancer” (Baylor College of Medicine, priority 2014, dated 2018)

Tests used:
Type in all cases: cell-based, human
C4-2 and PC-3 cells [1] = experiment: Cell growth assay (Cellglo); settings: C4-2 and PC-3 shNT cells; BPTES 1 μM, 4 days
Experimental: FIG. 6—SRC-2 is essential for prostate cancer cell survival. (A) Representative images depicting the growth of C4-2 stable cells—shNT, sh18 and sh19 in soft agar assay two weeks after plating. (B) Quantification of the total number of C4-2 stable cell colonies that survived after two weeks. (C) H&E stained sections of mouse lungs from experimental lung metastasis assay. Nude mice were injected with PC-3 cells stably expressing shNT, sh18 and sh19 via tail vein (n=7), and growth and survival of the cells in mouse lungs were analyzed after 5 weeks. (D) Quantification of Ki67 (antibody epitope reacts with human Ki67 protein) stained cells in the mouse lung sections from shNT, sh18 and sh19-injected animals. Refer Supplementary FIG. 14C. (E) Western blot analysis showing the expression levels of SRC-2, FASN, SCD and actin in C4-2 stable cells—shNT and sh19, and re-expression of SRC-2 in sh19 cells infected with Adv. SRC-2. Actin was used to normalize the protein loading. […]
Cells were seeded in 96-well plates in complete medium, and after the cells attached to the bottom surface they were incubated in nutrient-stressed medium. The cell growth was measured using Cellglo kit (Promega) according to manufacturer's instructions. […]

C4-2 and PC-3 cells [2] = experiment: Oxygen consumption rate (Seahorse XF24); settings: C4-2 and PC-3 stable cells; oligomycin 25-40 min time frame, FCCP 45-65 min time frame
Experimental: (A) Real-time measurement of basal and maximal oxygen consumption rate (OCR) in C4-2 stable cells—shNT, sh18 and sh19. (B, C) Basal and maximal OCR in C4-2 stable cells—shNT, sh18 and sh19 were measured in DMSO control (B) or FCCP-treated (C) cells cultured in presence of high glucose (11 mM)/low glutamine (0.2 mM) or low glucose (5 mM)/high glutamine (2 mM). […] Data are graphed as the mean±s.e.m. *P<0.05, **P<0.001 by Student's t test.
(A) Real-time measurement of basal and maximal oxygen consumption rate (OCR) in PC-3 stable cells—shNT, sh18, and sh19. (B, C) Basal and maximal OCR in PC-3 stable cells—shNT, sh18, and sh19 were measured in DMSO control or FCCP-treated cells cultured in presence of high glucose (11 mM)/low glutamine (0.2 mM) or low glucose (5 mM)/high glutamine (2 mM). […] Data are graphed as the mean±s.e.m. *P<0.05, **P<0.001 by Student's t test.
The oxygen consumption rate (OCR) was measured using a Seahorse Bioscience XF24 Extracellular Flux Analyzer according to manufacturer's protocol. Briefly, cells were seeded in triplicates at equal densities (25,000 cells per well) into XF24 tissue culture plates. […] Oxygen consumption was measured under basal conditions (DMSO), oligomycin and mitochondrial uncoupler trifluoromethoxy carbonyl cyanide phenyl 59ydrazine (FCCP) (2 mM) using the mito-stress kit (Seahorse Bioscience). […]

[3] = test system: SRC-2 protein in C4-2 cells; experiment: Western blot of SRC-2 protein level after kinase inhibitor treatment; settings: for SRC-2 protein level compared to DMSO-treated cells: Torin 250 nM, 12 hours
Experimental: FIG. 4—Glutamine stimulation induces mTORC1-dependent SRC-2 transcriptional activity. (A) Western blot analysis of FASN, SCD, SRC-2 and actin in C4-2 stable cells—shNT, sh18 and sh19 grown in high glucose (11 mM)/low glutamine (0.2 mM) or low glucose (5 mM)/high glutamine (2 mM). Actin was used as a control to normalize the protein loading. Semiquantitative levels of each band were analyzed by densitometry using UVP Vision Works LS software and relative values (compared to shNT) normalized to actin are indicated numerically under each lane. (B) C4-2 cells were cultured in presence of high glucose (11 mM)/low glutamine (0.2 mM) or low glucose (5 mM)/high glutamine (2 mM) and then treated with kinase inhibitors: BEZ-235 (1 uM); Rapamycin (100 nM); Torin (250 nM); and Wortmannin (250 nM). Western blot analyses were performed to measure the stability of SRC-2 protein. Semi-quantitative levels of each band were analyzed by densitometry using UVP Vision Works LS software and relative values (compared to DMSO) normalized to actin are indicated numerically under each lane. (C) Immunoprecipitation of HA-SRC-2 followed by Western immunoblot to detect the phosphorylation status of SRC-2 using phospho-serine/threonine antibody. Input lysates were obtained from C4-2 cells expressing Adv.GFP or Adv. SRC-2, and subsequently stimulated with increasing concentration of glutamine—[…] followed by treatment with DMSO or mTORC1 inhibitor-Torin (250 nM). Actin was used to normalize the input loading. Semiquantitative levels of phospho-SRC-2 were analyzed by densitometry using UVP Vision Works LS software and relative values (compared to lane 2) normalized to actin are indicated numerically under each lane. (D) PC-3 cells expressing either Adv.GFP or Adv. SRC-2 were transfected with FASN-luc construct and stimulated with high glucose (11 mM)/low glutamine (0.2 mM) or high glutamine (2 mM)/low glucose (5 mM) followed by treatment with DMSO or Torin (250 nM). Lucifrease assay was then performed to measure the FASN promoter activity and data were normalized to total protein. […]

SRC-2 mRNA in C4-2 cells = experiment: Quantitative real time PCR of SRC-2 messenger after kinase inhibitor treatment; settings: Torin 250 nM
Experimental: FIG. 13—Glutamine stimulation activates SRC-2 transcriptional functions in an mTORC1 dependent manner. (A) Quantitative real time PCR analysis of FASN, SCD and SRC-2 in C4-2 cells were treated with siGFP (control) or siSRC-2 and cultured in nutrient stressed conditions—high glucose (11 mM)/low glutamine (0.2 mM) or low glucose (5 mM)/high glutamine (2 mM). (B) Quantitative real time PCR analysis of SRC-2 in C4-2 cells expressing siGFP (control) or siSRC-2 and then treated with BEZ-235 (1 uM); Rapamycin (100 nM); Torin (250 nM); and Wortmannin (250 nM). (C) Western blot analysis showing the expression of phospho-S6K (p-S6K), phospho-4EBP1 (p-4EBP1) and actin in C4-2 cells stimulated with increasing concentration of glutamine followed by treatment with DMSO or mTORC1 inhibitor-Torin. Actin was used to normalize the protein loading.
Total mRNA was isolated from prostate cancer cells, tissues and tumors using the RNeasy Kit (QIAGEN). Reverse transcription was carried out using Superscript VILO cDNA synthesis kit (Invitrogen, CA) according to the manufacturer's instructions. For gene expression analysis, qPCR was performed using the Taqman system (Roche) with sequence-specific primers and the Universal Probe Library (Roche). […] Data was analyzed using the comparative Ct method (ΔΔCt). […] Data obtained was analyzed using RT^2 Profiler™ PCR Array Data Analysis software (SA Bioscineces, CA). […]

[4] = test system: SRC-2 serine/threonine phosphorylation in C4-2 cells; experiment: Immunoprecipitation of HA-SRC-2 and phospho-serine/threonine immunoblot; settings: C4-2 cells expressing Adv. SRC-2 (HA-SRC-2), glutamine stimulated; Torin 250 nM, 4 hours pre-treatment
Experimental: (§1) FIG. 4—Glutamine stimulation induces mTORC1-dependent SRC-2 transcriptional activity. (A) Western blot analysis of FASN, SCD, SRC-2 and actin in C4-2 stable cells—shNT, sh18 and sh19 grown in high glucose (11 mM)/low glutamine (0.2 mM) or low glucose (5 mM)/high glutamine (2 mM). Actin was used as a control to normalize the protein loading. Semiquantitative levels of each band were analyzed by densitometry using UVP Vision Works LS software and relative values (compared to shNT) normalized to actin are indicated numerically under each lane. (B) C4-2 cells were cultured in presence of high glucose (11 mM)/low glutamine (0.2 mM) or low glucose (5 mM)/high glutamine (2 mM) and then treated with kinase inhibitors: BEZ-235 (1 uM); Rapamycin (100 nM); Torin (250 nM); and Wortmannin (250 nM). Western blot analyses were performed to measure the stability of SRC-2 protein. Semi-quantitative levels of each band were analyzed by densitometry using UVP Vision Works LS software and relative values (compared to DMSO) normalized to actin are indicated numerically under each lane. […] Semiquantitative levels of phospho-SRC-2 were analyzed by densitometry using UVP Vision Works LS software and relative values (compared to lane 2) normalized to actin are indicated numerically under each lane. […]

[5] = test system: SRC-2 protein stability in C4-2 cells; experiment: Cycloheximide protein stability assay; settings: high glutamine (2.0 mM), cycloheximide 0.5 mM, Torin 250 nM
Experimental: FIG. 14—Glutamine-dependent mTORC1 phosphorylation controls SRC-2 protein stability. (A) C4-2 cells were cultured in presence of low glutamine (0.2 mM) and high glutamine (2.0 mM) followed by treatment with cycloheximide (0.5 mM) for indicated time points. Western blot showing the total-level of SRC-2 and actin was used as a loading control. (B) C4-2 cells were cultured in presence of high glutamine (2.0 mM) followed by either treatment with DMSO and Torin. Cycloheximide (0.5 mM) was then added to the cells for indicated time points. Western blot showing the total-level of SRC-2 and actin was used as a loading control.
SRC-2 protein stability was studied by cycloheximide treatment experiments in C4-2 cells for different time points as described previously (Li C, Jo A, et al, 2011). C4-2 cells were cultured in low glutamine (0.2 mM) or high glutamine (2.0 mM) followed by treatment with cycloheximide (0.5 mM). For Torin treatment, C4-2 cells cultured in high glutamine were either treated with DMSO (vehicle-control) or Torin (250 nM) prior to cyclohexamide treatments. Cells were lysed followed by Western immunoblotting.

[6] = test system: SRC-2 driven FASN-promoter activity in PC-3 cells; experiment: FASN-luc luciferase reporter assay; settings: PC-3 cells expressing Adv. SRC-2, high glutamine (2 mM)/low glucose (5 mM); Torin 250 nM
Experimental: as §1, with “(B) C4-2 cells were cultured in presence of high glucose (11 mM)/low glutamine (0.2 mM) or low glucose (5 mM)/high glutamine (2 mM) and then treated with kinase inhibitors: BEZ-235 (1 uM); Rapamycin (100 nM); Torin (250 nM); and Wortmannin (250 nM). Western blot analyses were performed to measure the stability of SRC-2 protein.” left out
Luciferase assays were performed using Luciferase Reporter Assay (Promega) and a Berthold 96 well plate reader. […]
Luciferase promoter constructs were obtained from following sources: FASN-Addgene, SCD-Switchgear genomics and ZIP1—Peter Makhov (Fox Chase Cancer Center). […] Cells were harvested two days after transfection and luciferase assay performed using a Luciferase Reporter Assay (Promega) and a Berthold 96 well plate reader. […]

[7] = test system: recruitment of SRC-2 to the FASN and SCD promoters in C4-2 cells; experiment: ChIP of SRC-2 on FASN and SCD promoters; settings: glutamine stimulation (2 mM), Torin 250 nM

SMILES: O=C(Cc1ccccc1)Nc1nnc(CCSCCc2nnc(NC(=O)Cc3ccccc3)s2)s1 [BPTES]
- Prostate cancer cell growth compared to DMSO (C4-2 and PC-3 cells [1]): robust decrease

SMILES: CC[C@H]1/C=C/C=C/C[C@@H](C)[C@H](O)[C@@](C)(O)C(=O)[C@@H](C)[C@H](O)[C@@H](C)C(=O)[C@@H](C)[C@H](O)[C@@H](C)/C=C/C(=O)O[C@@H]2[C@H](C)[C@H](CC1)O[C@]1(CC[C@H](C)[C@H](C[C@@H](C)O)O1)[C@H]2C [oligomycin]
- Oxygen consumption rate (OCR) (C4-2 and PC-3 cells [2]): decreased the oxygen consumption

SMILES: Cn1c(=O)n(-c2ccc(C(C)(C)C#N)cc2)c2c3cc(-c4cnc5ccccc5c4)ccc3ncc21 [BEZ-235]
- SRC-2 protein stability ([3]; either culture condition (high glucose/low glutamine or low glucose/high glutamine), BEZ-235 1 uM): failed to show any effect

SMILES: CCC(=O)N1CCN(c2ccc(-n3c(=O)ccc4cnc5ccc(-c6cnc7ccccc7c6)cc5c43)cc2C(F)(F)F)CC1 [Torin]
- SRC-2 protein level compared to DMSO-treated cells ([3]; glutamine-stimulated (low glucose 5 mM/high glutamine 2 mM), Rapamycin 100 nM): down-regulated
- SRC-2 protein level compared to DMSO-treated cells ([3]; high glucose (11 mM)/low glutamine (0.2 mM), Wortmannin 250 nM): not observed
- SRC-2 messenger expression (SRC-2 mRNA in C4-2 cells): without any appreciable change
- Glutamine-induced SRC-2-serine/threonine phosphorylation [4]: reversed
- Glutamine-increased SRC-2 protein stability (cycloheximide time course) [5]: completely suppressed
- Glutamine dependent SRC-2 driven FASN-promoter activity [6]: significantly blocked
- Glutamine dependent recruitment of SRC-2 to the FASN and SCD promoters [7]: significantly blocked

SMILES: N#CC(C#N)=NNc1ccc(OC(F)(F)F)cc1 [FCCP, Carbonyl cyanide 4-(trifluoromethoxy)phenylhydrazone]
- Oxygen consumption rate (OCR) (C4-2 and PC-3 cells [2]): dramatically enhanced
